≈ marks a conversion by molar mass, not a printed value. Some results are limits rather than exact numbers.

For data set [1], the target named is T1, CYP1A2 (Homo sapiens, UniProt P05177).
T1 sequence (P05177 1-516): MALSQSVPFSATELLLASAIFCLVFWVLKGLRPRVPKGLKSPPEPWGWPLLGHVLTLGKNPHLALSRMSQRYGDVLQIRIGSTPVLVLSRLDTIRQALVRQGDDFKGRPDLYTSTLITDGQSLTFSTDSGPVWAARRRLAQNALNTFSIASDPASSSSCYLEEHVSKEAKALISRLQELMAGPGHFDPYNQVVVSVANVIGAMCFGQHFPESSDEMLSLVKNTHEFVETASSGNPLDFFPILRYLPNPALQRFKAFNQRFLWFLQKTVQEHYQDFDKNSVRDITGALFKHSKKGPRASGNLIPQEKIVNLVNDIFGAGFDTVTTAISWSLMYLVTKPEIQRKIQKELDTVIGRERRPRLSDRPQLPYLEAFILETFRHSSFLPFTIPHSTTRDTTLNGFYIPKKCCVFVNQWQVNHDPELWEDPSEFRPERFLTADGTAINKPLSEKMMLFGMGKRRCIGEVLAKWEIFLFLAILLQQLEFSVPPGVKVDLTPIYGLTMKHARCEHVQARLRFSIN
To be noted: for inhibitor strength toward CYP1A2 activity (in words): human liver microsomes; for relative potency (AEM IC50)/(other anthraquinone IC50), CYP1A2-mediated caffeine demethylation: AEM as reference chemical.

Data set [2] deals with T1, CYP1A2. Put plainly: biochemical.
In data set [3] the target is T2, CYP3A4 (Homo sapiens, UniProt P08684). To be noted: for inhibitor strength toward CYP3A4 activity (in words): human liver microsomes; for relative potency (AEM IC50)/(other anthraquinone IC50), CYP3A4-mediated erythromycin demethylation: AEM as reference chemical.
Data set [4] has as its target T2, CYP3A4. Put plainly: biochemical.
The test system of the next data set is CYP1A1/2. To be noted: in vitro; ref Ayrton et al., 1987; cited from earlier work.
In data set [5] the target is T1, CYP1A2. Put plainly: in vitro. To be noted: microsomes, pH 7.4.

T2 sequence (P08684 whole entry): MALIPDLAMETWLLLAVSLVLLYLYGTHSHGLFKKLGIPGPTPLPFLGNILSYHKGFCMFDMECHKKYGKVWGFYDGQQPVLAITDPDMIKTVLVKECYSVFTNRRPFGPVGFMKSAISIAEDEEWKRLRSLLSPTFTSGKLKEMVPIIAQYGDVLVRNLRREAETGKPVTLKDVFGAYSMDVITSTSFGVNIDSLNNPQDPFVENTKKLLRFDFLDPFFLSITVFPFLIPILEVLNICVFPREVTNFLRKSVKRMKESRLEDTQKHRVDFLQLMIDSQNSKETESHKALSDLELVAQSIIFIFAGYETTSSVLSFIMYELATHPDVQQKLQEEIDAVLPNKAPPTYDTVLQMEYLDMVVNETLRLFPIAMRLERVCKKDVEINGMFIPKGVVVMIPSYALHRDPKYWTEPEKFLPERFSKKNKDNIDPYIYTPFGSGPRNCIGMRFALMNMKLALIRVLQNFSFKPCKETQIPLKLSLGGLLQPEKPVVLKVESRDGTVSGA

As for `O=C(O)c1cc(O)c2c(c1)[C@@H]([C@H]1c3cc(C(=O)O)cc(O)c3C(=O)c3c(O[C@@H]4O[C@H](CO)[C@@H](O)[C@H](O)[C@H]4O)cccc31)c1cccc(O[C@@H]3O[C@H](CO)[C@@H](O)[C@H](O)[C@H]3O)c1C2=O` [Sennoside B], the “inhibitor strength toward CYP1A2 activity (in words)” value on CYP1A2 [1] is “moderate inhibitor”. At CYP1A2 [2], the 50% inhibitory concentration (IC50) was 33.1 µM. Moreover, the “inhibitor strength toward CYP3A4 activity (in words)” value against CYP3A4 [3] is given as “moderate inhibitor”.
Turning to `Cc1cc(O)c2c(c1)C(=O)c1cc(O)cc(O)c1C2=O` [Emodin], on CYP1A2 [1], the “relative potency (AEM IC50)/(other anthraquinone IC50), CYP1A2-mediated caffeine demethylation” value was 0.02 unitless and the “inhibitor strength toward CYP1A2 activity (in words)” value is recorded as “weak CYP1A2 inhibitor”. For the same compound, on CYP3A4 [4], half-maximal inhibition (IC50) was put at 15.2 µM. On CYP1A2 [2], this compound had an IC50 of 67 µM. Further, on CYP3A4 [3], the “relative potency (AEM IC50)/(other anthraquinone IC50), CYP3A4-mediated erythromycin demethylation” value is on record as 0.55 unitless and the “inhibitor strength toward CYP3A4 activity (in words)” value is listed as “moderate inhibitors”.
For `O=C(O)c1cc(O)c2c(c1)[C@H]([C@H]1c3cc(C(=O)O)cc(O)c3C(=O)c3c(O[C@@H]4O[C@H](CO)[C@@H](O)[C@H](O)[C@H]4O)cccc31)c1cccc(O[C@@H]3O[C@H](CO)[C@@H](O)[C@H](O)[C@H]3O)c1C2=O` [Sennoside A], at CYP1A2 [1], the “inhibitor strength toward CYP1A2 activity (in words)” value was “weak inhibitor”. The half-maximal inhibitory concentration (IC50) against CYP1A2 [2] is > 155 µM. At CYP3A4 [3], the “inhibitor strength toward CYP3A4 activity (in words)” value is “weak inhibitor”.
As to `O=C(O)c1cc(O)c2c(c1)C(=O)c1cccc(O)c1C2=O` [Rhein], at CYP1A2 [1], the “relative potency (AEM IC50)/(other anthraquinone IC50), CYP1A2-mediated caffeine demethylation” value is recorded as 0.68 unitless and the “inhibitor strength toward CYP1A2 activity (in words)” value is reported as “potent inhibitors”. The same compound showed an IC50 on CYP3A4 [4] of 97.6 µM. Half-maximal inhibition against CYP1A2 [2] (IC50) required 2.18 µM. At CYP3A4 [3], the “relative potency (AEM IC50)/(other anthraquinone IC50), CYP3A4-mediated erythromycin demethylation” value is recorded as 0.08 unitless and the “inhibitor strength toward CYP3A4 activity (in words)” value is on record as “weak inhibitors”.
For the compound `O=C1c2ccc(O)cc2C(=O)c2ccc(O)cc21` [2,6-dihydroxyanthraquinone], in the data set with CYP1A1/2, the “inhibitor strength toward rat liver microsomal CYP1A1/2 activity (in words)” value was “potent inhibitor”.
On to `O=C1c2cccc(O)c2C(=O)c2c(O)cc(CO)cc21` [Aloe-emodin], for which, on CYP1A2 [1], the “relative potency (AEM IC50)/(other anthraquinone IC50), CYP1A2-mediated caffeine demethylation” value stood at 1.00 unitless and the “inhibitor strength toward CYP1A2 activity (in words)” value is “potent inhibitors”. For the same compound, the “slope of CYP1A2 inhibition-log concentration (or dilution volume) curve” value on CYP1A2 [1] (Fig. 5) turned out to be 1.74. At CYP3A4 [4], this compound showed an IC50 of 8.29 µM. Moreover, on CYP1A2 [2], the IC50 is 1.55 µM. At CYP3A4 [3], the “relative potency (AEM IC50)/(other anthraquinone IC50), CYP3A4-mediated erythromycin demethylation” value was determined as 1.00 unitless and the “inhibitor strength toward CYP3A4 activity (in words)” value is “moderate inhibitors”.
In turn, `COc1cc(O)c2c(c1)C(=O)c1cc(C)cc(O)c1C2=O` [Physcion] gave an IC50 against CYP1A2 [5] of 0.43 µg/mL (≈ 1.51 µM). For the same compound, at CYP1A2 [1], the “relative potency (AEM IC50)/(other anthraquinone IC50), CYP1A2-mediated caffeine demethylation” value turned out to be 0.98 unitless and the “inhibitor strength toward CYP1A2 activity (in words)” value was “potent inhibitors”. In addition, at CYP3A4 [4], the IC50 is > 220 µM. Further, the “relative potency (AEM IC50)/(other anthraquinone IC50), CYP3A4-mediated erythromycin demethylation” value at CYP3A4 [3] is given as < 0.04 unitless.
Take `Cc1cc(O)c2c(c1)C(=O)c1cccc(O)c1C2=O` [Chrysophanol]: on CYP1A2 [1], the “inhibitor strength toward CYP1A2 activity (in words)” value is “potent inhibitors”. The compound also showed a half-inhibitory concentration (IC50) at CYP1A2 [2] of 1.73 µM.

The values are drawn from article PMC6323127 (Saudi Pharmaceutical Journal : SPJ, 2018).
